The results in this text go back to a melting point compilation (Tetko et al.; mined from patent text by program, amines drawn as free bases though some values may be those of a salt).

In general, melting point refers to the temperature, or range, at which the solid turns liquid. For the compound `CCOC(=O)Cn1ncc(-c2ccccc2)c1-c1ccc(O)cc1`, the melting point fell in the range of 130 to 135 °C. The compound `NC(=O)C(CCO)N1CCCC1=O` (centres undefined) displayed a melting point of 164 to 165 °C. In turn, `CC(C)n1cc(-c2nc(C(N)=O)c(N)nc2-c2ccc(C#N)cc2)ccc1=O` displayed a melting point of 292 °C. The figure for `CC(=O)OCc1ccc2oc(=O)c(C(=O)Oc3ccccc3I)cc2c1` is 156 to 158 °C; for `NC1=CC(N)=NCN1C(=O)OCc1ccccc1` it is 194 °C. `OC(CCl)(c1ccccc1)c1ccccc1`: the melting point fell in the range of 56 to 57 °C. The figure for `Cc1cc(N2CCN(Cc3ccc(F)cc3)C2=O)sc1C(=O)NCc1nc2ccccc2[nH]1` is 265 to 267 °C; for `CCC(=O)NC1CCc2cc(OC)ccc2C1` (centres undefined) it is 125 °C; for `CCN(CC)c1cc2c(cc1C)Nc1c(cc(NC(C)=O)c3ncn(C)c13)O2` it is 217 to 218 °C. The figure for `Cc1cc(C)nc(NC(=O)NS(=O)(=O)c2ccccc2OCCO)n1` is 183 to 190 °C; for `C#CCN(CCC12CC3CC(CC(C3)C1)C2)C(=O)NCCCc1ccncc1` it is 152 to 154 °C. The figure for `CC(C)C[C@H](CC(=O)NC1CCCCC1)C(=O)OCc1ccccc1` is 99 to 102 °C; for `Cn1cncc1-c1cnc(-c2ccccc2)nc1` it is 144 °C. The compound `Cc1cccc(OC2CN(C(N)=O)C2)c1` had a melting point of 167 to 168 °C. In the case of `CNC1CN(c2c(F)c(N)c3c(=O)c(C(=O)O)cn(-c4nc(N)c(F)cc4F)c3c2Cl)C1`, the melting point lay within 204 to 213 °C.

Turning to `COC(=O)c1cc(OCCCOc2ccc(-c3ccccc3)cc2)cc(OCCCOc2ccc(-c3ccccc3)cc2)c1`, the melting point fell in the range of 142 to 145 °C. The figure for `COc1cc2ccn(C(=O)c3ccc(-c4ccccc4)c(C)c3)c2cc1OCCN(C)C` is 152 to 154 °C; for `CCCCCCOc1cc(-n2c(=O)cc(C(F)(F)F)n(C)c2=O)c(F)cc1Cl` it is 60 to 63 °C. On to `COc1ccc(Nc2cc(C)nc(SCC#N)n2)cc1`, for which the melting point lay in the range of 128 to 131 °C. The figure for `CN(C(=O)CN1C(=O)c2ccccc2S1(=O)=O)c1ccccc1` is 205 to 206 °C; for `CCN(CC)c1ccc2c(C)c(C#Cc3ccccc3)c(=O)oc2c1` it is 142 to 144 °C; for `C=CC(CC(O)C(CC1CCCCC1)NC(=O)C(Cc1c[nH]cn1)NC(=O)C(Cc1ccccc1)Cc1ccccc1)C(C)C` (centres undefined) it is 98 °C. The figure for `CCCCCc1ccc(-c2ccc(C3CCC(=O)O3)cc2)cc1` (single isomer, unassigned) is 98.8 °C; for `COC(=O)c1ccccc1S(=O)(=O)Nn1c(SC)nn(-c2nc(OC)cc(OC)n2)c1=O` it is 179 °C.

In turn, `CN1C(=O)CN(c2ccccc2)C1=S` yielded a melting point of 112 °C. As to `CSc1sc(C(=O)N2CCCCCC2)c2c1C(=O)CC(C)(C)C2`, the melting point was in the range of 168 to 170 °C. `Fc1ccc2cc(C3=CCNCC3)sc2c1` registered a melting point of 155 to 157 °C. For the compound `CN1CCN(CCC(=O)N2c3ccccc3C(=O)Nc3cccnc32)CC1`, the melting point lay within 232 to 233 °C. The figure for `CC(Cl)(Cl)C(NC(=O)c1cc(F)cc(F)c1)NC(=NC#N)Nc1cccnc1` (centres undefined) is 191 to 193 °C; for `ClCc1c(Br)c(Br)c(CCl)c(Br)c1Br` it is 232 to 233 °C. Compound `O=C(O)CC1CCc2c(n(Cc3ccccc3)c3ccccc23)S1` (centres undefined) yielded a melting point of 164 to 167 °C. The figure for `CN1Cc2c(C(=O)O)ncn2-c2ccccc2C1=O` is 287 °C. The figure for `CC1(C)COC(=O)N1c1nc(-c2cccc([N+](=O)[O-])c2)cs1` is more than 210 °C; for `COC(=O)C1OC(OC(=N)C(Cl)(Cl)Cl)C(OC(C)=O)C(OC(C)=O)C1OC(C)=O` (centres undefined) it is 108 °C. The figure for `CC(C)CCC1(c2ccccc2)CC(O)=C(Sc2ccccc2C(C)C)C(=O)O1` (centres undefined) is 64 to 66 °C; for `CC(C)(Cc1ccccc1)Nc1c(NCc2cc3cc(C#N)ccc3o2)c(=O)c1=O` it is 233 to 235 °C. `CC(=O)Nc1nc2c(s1)C(=O)CCC2` displayed a melting point of 268 to 272 °C. The compound `Cc1cc2c(cc1C)C(c1ccccc1)(C(F)(F)F)c1cc(C)c(C)cc1O2` registered a melting point of 214 to 215 °C. The figure for `NC(=N[N+](=O)[O-])NCCC[C@@H](NC(=O)C(c1ccccc1)c1ccccc1)C(=O)NCc1ccc(COC(=O)Oc2ccccc2)cc1` is 186 to 187 °C; for `CC(C)(C)OC(=O)NCCCC(=O)NCc1cccc2c1CN(C1CCC(=O)NC1=O)C2=O` (centres undefined) it is 199 to 201 °C; for `Cc1nc2c3c(c(CCl)cn2c1C)CCC(c1ccccc1)C3` (centres undefined) it is 155 to 157 °C. For `O=C(Nc1ncccn1)c1c(O)ccc2cc(-c3cccc(O)c3)ccc12`, the melting point was found to be 156 °C. With `O=C(NCCCCCCc1ccc(-c2ccc(=O)[nH]n2)cc1)c1cccnc1`, the melting point fell in the range of 178 to 179 °C.

For the compound `COc1ccc2[nH]c(C(=NO)c3ccccc3)cc2c1`, the melting point lay in the range of 150 to 152 °C. The figure for `CC(C)S(=O)(=O)NCC(C)(F)c1ccc(-c2ccc(CC#N)cc2)cc1` (centres undefined) is 155 to 157 °C; for `CN(C)c1ncc2c(n1)-c1ccc(Cl)cc1C(c1ccccc1F)=NC2` it is 175 to 179 °C. The figure for `CN1CCC(c2c[nH]c3ccc(NC(=O)c4ccc(F)s4)nc23)CC1` is 244 to 245 °C. Compound `O=S1(=O)CCC(NCCNC2CCS(=O)(=O)C2)C1` (centres undefined) returned a melting point of 60 to 85 °C. For `CCOC(=O)C(=CNc1cccc2c1CCC2)C(=O)OCC`, the melting point lay within 25 to 30 °C.

As to `COC(=O)c1cc(-c2ccc3cc4c(cc3c2)C(C)(C)CCC4(C)C)c[nH]1`, the melting point was 140 to 143 °C.

`CC1(C)Cc2cccc(Oc3ccc(N)cc3Cl)c2O1` had a melting point of 102 to 104 °C. In the case of `C=CCOC(=O)C(=[N+]=[N-])C(=O)CC1CC(=O)N1` (centres undefined), the melting point was determined as 83 °C.

In turn, `Cc1ccc(C)c(S(=O)(=O)n2ccc3c4c(N)nc(N)nc4ccc32)c1` displayed a melting point of 272 °C. The figure for `C[C@H]([C@](O)(Cn1cncn1)c1ccc(F)cc1F)S(=O)(=O)N1CCN(c2ncccn2)CC1` is 101 to 108 °C; for `COC(=O)c1ccc(C=Cc2cnc3nc(NC(=O)C(C)(C)C)nc(O)c3c2)[nH]1` it is more than 260 °C.

On to `CCOC(=O)C(=Cc1ccc(OC)cc1OC)C(=O)OCC`, for which the melting point is 40 to 41 °C. The figure for `CC(=O)N1CCC(NC(=O)Nc2ccc(F)cc2)CC1` is 146 to 148 °C. The figure for `OCc1ccc(OCc2cn3c(Cl)cccc3n2)cc1` is 169 to 171 °C; for `Cn1c(=O)n(O)c(=O)c2cc(F)c(N3CCCC3)cc21` it is more than 250 °C; for `CC(C)(C(=O)O)c1ccc(C(=O)Nc2cn3cc(-c4ccoc4)ccc3n2)cc1` it is 307 to 309 °C. The figure for `O=C(NCC(O)c1ccccc1)c1ccccc1` (centres undefined) is 140 to 143 °C. For the compound `O=C(c1ccc(Cl)cc1)c1ccc(NCC2CO2)cc1` (centres undefined), the melting point was 128 to 129 °C. The figure for `C#CCCc1cc2ccc(C(=O)OC)cc2o1` is 68 to 69 °C; for `CCc1cccc2nc(N[C@@H](CC(C)C)C(=O)OC)oc(=O)c12` it is 74 to 76 °C; for `O=[N+]([O-])c1c(Br)nn(CC(O)CO)c1NCc1ccccc1` (centres undefined) it is 90.1 °C. With `Cc1nc(-c2ccc(-c3ccc(C(=O)Nc4ccc(Br)c(OCCN(C)C)c4)cc3)c(C)c2)no1`, the melting point was 138 to 140 °C. The figure for `COc1ccccc1NC(=O)Nc1nc(N2CCC(O)CC2)nc(N(CCC(=O)O)Cc2ccc(Cl)c(Cl)c2)n1` is 121 to 124 °C; for `Clc1cc2c(cc1Cl)Nc1cscc1CN2` it is 195 to 197 °C. The figure for `O=C(OCc1ccccc1)c1cc(Br)c(OCc2ccccc2)cc1OCc1ccccc1` is 74 to 76 °C; for `CN(C)CN=c1[nH]c2cnccc2s1` it is 125 to 127 °C. For the compound `Fc1ccccc1-c1nc2cccnc2s1`, the melting point was in the range of 119 to 121 °C. The figure for `N#Cc1ccc(C(Cc2ccc(C(F)(F)F)cn2)Cn2cncn2)cc1` (centres undefined) is 78 °C; for `COc1ccc(CN(CC2CCOCC2)S(=O)(=O)c2ccc(Cl)cc2)cc1C(=O)O` it is 158 to 159 °C; for `COc1ccc(Br)cc1C(=O)C(Br)C(Br)c1ccc(Br)cc1` (centres undefined) it is 158 to 159 °C. The figure for `O=C(C1=NN(c2ccc(Cl)cc2Cl)C(c2ccc(Cl)cc2)C1)N1CCCCC1` (centres undefined) is 105 to 110 °C; for `COc1ccc(Nc2nc(N3CCOCC3)nc(-n3c(C(F)F)nc4c(OC)cccc43)n2)nn1` it is 256 to 259 °C; for `Cn1nc(C(F)(F)F)cc1Oc1cccc(-c2nc(C(F)(F)F)no2)n1` it is 91 to 93 °C.

Regarding `COc1nc(C)cnc1NS(=O)(=O)c1cccnc1-c1ccc(C(C)C)cc1`, the melting point fell in the range of 74 to 75 °C. The compound `c1ccc(C(c2ccc3[nH]nnc3c2)n2ccnc2)cc1` (centres undefined) came in with a melting point of 179 °C. In turn, `O=C(c1ccc(Nc2ncnc3ccccc23)cc1)N1CCN(c2ncc(Cc3ccccc3)cn2)CC1` came in with a melting point of 245 to 247 °C. `COc1cc(C(N)=O)c([N+](=O)[O-])cc1OCc1ccccc1` registered a melting point of 222 to 224 °C. `Cc1cccc(Br)c1C(=O)c1sc(Nc2ccc(N3CCOCC3)cc2)nc1N`: the melting point was in the range of 105 to 125 °C. The figure for `CC(C)(Cl)C(CCn1ccnc1[N+](=O)[O-])N=O` (centres undefined) is 96 to 97 °C; for `CC1CCN(CCNc2ccnc3cc(Cl)ccc23)CC1` it is 154 to 156 °C; for `COc1cnc(CSc2nc3cc(OC(F)(F)C(F)F)ccc3[nH]2)c(C)c1OC` it is 127 to 128 °C. In the case of `O=S(=O)(c1ccccc1)c1ccc(-c2ccccc2)s1`, the melting point lay within 115 to 116 °C. In turn, `CCOP(=O)(CNc1ccc2cc([N+](=O)[O-])cc(-c3cccc4ccccc34)c2n1)OCC` showed a melting point of 187 to 188 °C. The figure for `Cc1ccc(-n2nc(C(F)(F)F)cc2-c2ccc(S(C)(=O)=O)cc2)cc1Cl` is 136 to 138 °C; for `CCCCCCCCc1ccc(-c2ncc(O)cn2)cc1` it is 147 to 149 °C.
